Earlier results, collected in patent publication US6359007B1 (ChronoRX, LLC, priority 1999, dated 2002).
Read-outs that look alike come from different tables or passages of the source. Each block holds one compound with its values, some of them ahead of it.

Assays:
[1] = in vivo
[2] = stomach in the "fed" state
[3] = per meal, curvilinear falloff
[4] = not given; remark: listed apart in the source

SMILES: [Mg+2] [Mg^+2, Magnesium]
maximum bolus absorption [3]: 8 meq

SMILES: [Zn+2] [Zn^+2, Zinc]
increase of mean plasma Zn^+2 above pre-load levels ([4]; 11-fold increase in Zn^+2 intake): About 37%
Zn^+2 absorption ([4]; in vivo): 40% to 86
ingested Zn^+2 entering the plasma ([4]; in vivo): About 37%
time by which gastrointestinal absorption is essentially complete ([4]; in vivo): ≤ 4 h

Results, then the compound that gave them:

mean steady state plasma concentration (daily oral dose 200 mg): 12 mg/L
mean steady state plasma concentration (daily oral dose 2500 mg): 15 mg/L
SMILES: O=C1O[C@H]([C@@H](O)CO)C(O)=C1O [AA, ascorbic acid]

Absorption (via carrier-mediated transport) [1]: 30-40%
absorption of ingested Cu^+2 [1]: 30-40%
SMILES: [Cu+2] [Cu^+2, Copper]

gastrointestinal uptake of dietary arginine [2]: about 38%
SMILES: N=C(N)NCCC[C@H](N)C(=O)O [L-arginine]
